In PubChem BioAssay AID330 (DTP/NCI, 2004):
Several values for one entry are separate records, joined by “and”; a condition that tells them apart may be missing. Equal entries are not always repeated. Toxic doses and inconclusive results are not listed.

Test system: P388 leukemia ip, CD2F1 mice, survival T/C
Assay: NCI In Vivo Anticancer Drug Screen. Data for tumor model P388 Leukemia (intraperitoneal) in CD2F1 (CDF1) mice
Settings: endpoint: median survival time, higher = longer survival
Summary of the method: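 Mice carrying the transplanted tumor received test compound or vehicle. Survival was recorded in each group, and the value is the treated-group measurement divided by that of the vehicle-treated control group.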

CC1OC(=O)C(C(C)C)NC(=O)C(C(C)C)OC(=O)C(C(C)C)NC(=O)C(C)OC(=O)C(C(C)C)NC(=O)C(C(C)C)OC(=O)C(C(C)C)NC(=O)C(C)OC(=O)C(C(C)C)NC(=O)C(C(C)C)OC(=O)C(C(C)C)NC1=O (stereo not drawn)
T/C (dose: 0.03 mg/kg/injection, schedule: Q01DX009 (ip), vehicle: other): 113 % of control | T/C (dose: 0.1 mg/kg/injection, schedule: Q01DX005 (ip), vehicle: DMSO): 110 % of control | T/C (dose: 0.1 mg/kg/injection, schedule: Q01DX005 (ip), vehicle: other): 108 % of control | T/C (dose: 0.12 mg/kg/injection, schedule: Q01DX009 (oral), vehicle: other): 102 % of control | T/C (dose: 0.2 mg/kg/injection, schedule: Q01DX005 (ip), vehicle: DMSO): 116 % of control | T/C (dose: 0.2 mg/kg/injection, schedule: Q01DX005 (ip), vehicle: other): 110 % of control | T/C (dose: 0.23 mg/kg/injection, schedule: Q01DX009 (oral), vehicle: other): 96 % of control | T/C (dose: 0.25 mg/kg/injection, schedule: Q01DX009 (ip), vehicle: other): 154 % of control | T/C (dose: 0.4 mg/kg/injection, schedule: Q01DX005 (ip), vehicle: other): 120 % of control | T/C (dose: 0.47 mg/kg/injection, schedule: Q01DX009 (ip), vehicle: Klucel (hydroxypropylcellulose) (HPC)): 155 % of control | T/C (dose: 0.47 mg/kg/injection, schedule: Q01DX009 (oral), vehicle: other): 98 % of control | T/C (dose: 0.5 mg/kg/injection, schedule: Q01DX009 (ip), vehicle: Klucel (hydroxypropylcellulose) (HPC)): 116 % of control | T/C (dose: 0.5 mg/kg/injection, schedule: Q01DX009 (ip), vehicle: other): 100 % of control | T/C (dose: 0.62 mg/kg/injection, schedule: Q01DX009 (ip), vehicle: saline): 111 % of control and 97 % of control | T/C (dose: 0.94 mg/kg/injection, schedule: Q01DX009 (oral), vehicle: Klucel (hydroxypropylcellulose) (HPC)): 103 % of control | T/C (dose: 0.94 mg/kg/injection, schedule: Q01DX009 (oral), vehicle: other): 93 % of control | T/C (dose: 1.0 mg/kg/injection, schedule: Q01DX005 (ip), vehicle: Klucel (hydroxypropylcellulose) (HPC)): 155 % of control | T/C (dose: 1.25 mg/kg/injection, schedule: Q01DX009 (ip), vehicle: saline): 94 % of control | T/C (dose: 1.88 mg/kg/injection, schedule: Q01DX009 (ip), vehicle: Klucel (hydroxypropylcellulose) (HPC)): 161 % of control | T/C (dose: 1.88 mg/kg/injection, schedule: Q01DX009 (oral), vehicle: Klucel (hydroxypropylcellulose) (HPC)): 108 % of control | T/C (dose: 2.0 mg/kg/injection, schedule: Q01DX005 (ip), vehicle: Klucel (hydroxypropylcellulose) (HPC)): 165 % of control | T/C (dose: 2.5 mg/kg/injection, schedule: Q01DX009 (ip), vehicle: saline): 87 % of control and 94 % of control | T/C (dose: 3.75 mg/kg/injection, schedule: Q01DX009 (oral), vehicle: Klucel (hydroxypropylcellulose) (HPC)): 106 % of control | T/C (dose: 4.0 mg/kg/injection, schedule: Q01DX005 (ip), vehicle: Klucel (hydroxypropylcellulose) (HPC)): 160 % of control and 162 % of control | T/C (dose: 5.0 mg/kg/injection, schedule: Q01DX009 (ip), vehicle: Klucel (hydroxypropylcellulose) (HPC)): 162 % of control | T/C (dose: 5.0 mg/kg/injection, schedule: Q01DX009 (ip), vehicle: saline with Tween-80): 106 % of control | T/C (dose: 5.0 mg/kg/injection, schedule: Q01DX009 (ip), vehicle: saline): 87 % of control and 93 % of control | T/C (dose: 7.5 mg/kg/injection, schedule: Q01DX009 (ip), vehicle: Klucel (hydroxypropylcellulose) (HPC)): 88 % of control | T/C (dose: 7.5 mg/kg/injection, schedule: Q01DX009 (oral), vehicle: Klucel (hydroxypropylcellulose) (HPC)): 88 % of control | T/C (dose: 8.0 mg/kg/injection, schedule: Q01DX005 (ip), vehicle: Klucel (hydroxypropylcellulose) (HPC)): 159 % of control and 162 % of control | T/C (dose: 10.0 mg/kg/injection, schedule: Q01DX009 (ip), vehicle: Klucel (hydroxypropylcellulose) (HPC)): 97 % of control | T/C (dose: 10.0 mg/kg/injection, schedule: Q04DX003 (ip), vehicle: saline with Tween-80): 151 % of control and 167 % of control | T/C (dose: 16.0 mg/kg/injection, schedule: Q01DX005 (ip), vehicle: Klucel (hydroxypropylcellulose) (HPC)): 163 % of control | T/C (dose: 20.0 mg/kg/injection, schedule: Q04DX003 (ip), vehicle: saline with Tween-80): 108 % of control | T/C (dose: 6.25 micrograms/kg/injection, schedule: Q03HX008 (ip), vehicle: other): 101 % of control | T/C (dose: 6.25 micrograms/kg/injection, schedule: Q03HX020 (ip), vehicle: other): 118 % of control | T/C (dose: 6.25 micrograms/kg/injection, schedule: Q12HX004 (iv), vehicle: other): 101 % of control | T/C (dose: 6.25 micrograms/kg/injection, schedule: Q12HX010 (ip), vehicle: other): 111 % of control | T/C (dose: 6.25 micrograms/kg/injection, schedule: Q12HX010 (iv), vehicle: other): 102 % of control | T/C (dose: 12.5 micrograms/kg/injection, schedule: Q01DX001 (iv), vehicle: other): 97 % of control | T/C (dose: 12.5 micrograms/kg/injection, schedule: Q01DX005 (ip), vehicle: other): 103 % of control and 107 % of control | T/C (dose: 12.5 micrograms/kg/injection, schedule: Q01DX005 (iv), vehicle: other): 99 % of control and 100 % of control | T/C (dose: 12.5 micrograms/kg/injection, schedule: Q03HX008 (ip), vehicle: other): 118 % of control | T/C (dose: 12.5 micrograms/kg/injection, schedule: Q03HX020 (ip), vehicle: other): 119 % of control | T/C (dose: 12.5 micrograms/kg/injection, schedule: Q04DX002 (iv), vehicle: other): 101 % of control | T/C (dose: 12.5 micrograms/kg/injection, schedule: Q12HX004 (ip), vehicle: other): 110 % of control | T/C (dose: 12.5 micrograms/kg/injection, schedule: Q12HX004 (iv), vehicle: other): 103 % of control | T/C (dose: 12.5 micrograms/kg/injection, schedule: Q12HX010 (ip), vehicle: other): 123 % of control | T/C (dose: 12.5 micrograms/kg/injection, schedule: Q12HX010 (iv), vehicle: other): 103 % of control | T/C (dose: 25.0 micrograms/kg/injection, schedule: Q01DX001 (ip), vehicle: other): 98 % of control | T/C (dose: 25.0 micrograms/kg/injection, schedule: Q01DX001 (iv), vehicle: other): 103 % of control | T/C (dose: 25.0 micrograms/kg/injection, schedule: Q01DX005 (ip), vehicle: other): 115 % of control and 116 % of control | T/C (dose: 25.0 micrograms/kg/injection, schedule: Q01DX005 (iv), vehicle: other): 99 % of control and 100 % of control | T/C (dose: 25.0 micrograms/kg/injection, schedule: Q03HX008 (ip), vehicle: other): 113 % of control | T/C (dose: 25.0 micrograms/kg/injection, schedule: Q03HX020 (ip), vehicle: other): 124 % of control | T/C (dose: 25.0 micrograms/kg/injection, schedule: Q04DX002 (ip), vehicle: other): 102 % of control | T/C (dose: 25.0 micrograms/kg/injection, schedule: Q04DX002 (iv), vehicle: other): 101 % of control | T/C (dose: 25.0 micrograms/kg/injection, schedule: Q12HX004 (ip), vehicle: other): 100 % of control | T/C (dose: 25.0 micrograms/kg/injection, schedule: Q12HX004 (iv), vehicle: other): 98 % of control | T/C (dose: 25.0 micrograms/kg/injection, schedule: Q12HX010 (ip), vehicle: other): 121 % of control | T/C (dose: 25.0 micrograms/kg/injection, schedule: Q12HX010 (iv), vehicle: other): 103 % of control | T/C (dose: 50.0 micrograms/kg/injection, schedule: Q01DX001 (ip), vehicle: other): 100 % of control | T/C (dose: 50.0 micrograms/kg/injection, schedule: Q01DX001 (iv), vehicle: other): 101 % of control | T/C (dose: 50.0 micrograms/kg/injection, schedule: Q01DX005 (ip), vehicle: other): 118 % of control and 120 % of control | T/C (dose: 50.0 micrograms/kg/injection, schedule: Q01DX005 (iv), vehicle: other): 98 % of control and 103 % of control | T/C (dose: 50.0 micrograms/kg/injection, schedule: Q04DX002 (ip), vehicle: other): 109 % of control | T/C (dose: 50.0 micrograms/kg/injection, schedule: Q04DX002 (iv), vehicle: other): 100 % of control | T/C (dose: 50.0 micrograms/kg/injection, schedule: Q12HX004 (ip), vehicle: other): 113 % of control | T/C (dose: 50.0 micrograms/kg/injection, schedule: Q12HX004 (iv), vehicle: other): 104 % of control | T/C (dose: 50.0 micrograms/kg/injection, schedule: Q12HX010 (iv), vehicle: other): 101 % of control | T/C (dose: 100.0 micrograms/kg/injection, schedule: Q01DX001 (ip), vehicle: other): 100 % of control | T/C (dose: 100.0 micrograms/kg/injection, schedule: Q01DX001 (iv), vehicle: other): 100 % of control | T/C (dose: 100.0 micrograms/kg/injection, schedule: Q01DX005 (iv), vehicle: other): 101 % of control | T/C (dose: 100.0 micrograms/kg/injection, schedule: Q03HX020 (ip), vehicle: other): 161 % of control | T/C (dose: 100.0 micrograms/kg/injection, schedule: Q04DX002 (ip), vehicle: other): 110 % of control | T/C (dose: 100.0 micrograms/kg/injection, schedule: Q04DX002 (iv), vehicle: other): 101 % of control | T/C (dose: 100.0 micrograms/kg/injection, schedule: Q12HX004 (ip), vehicle: other): 124 % of control | T/C (dose: 100.0 micrograms/kg/injection, schedule: Q12HX010 (iv), vehicle: other): 102 % of control | T/C (dose: 200.0 micrograms/kg/injection, schedule: Q01DX001 (ip), vehicle: other): 103 % of control | T/C (dose: 200.0 micrograms/kg/injection, schedule: Q03HX008 (ip), vehicle: other): 120 % of control | T/C (dose: 200.0 micrograms/kg/injection, schedule: Q12HX010 (ip), vehicle: other): 153 % of control | T/C (dose: 400.0 micrograms/kg/injection, schedule: Q01DX001 (ip), vehicle: other): 111 % of control | T/C (dose: 800.0 micrograms/kg/injection, schedule: Q01DX001 (ip), vehicle: other): 114 % of control
